Among the data in patent publication US9000043B2, “Phenoxyethoxy compounds” (Eli Lilly and Company, priority 2013, dated 2015) are IC50 and Ki values, retold here.

The target of assay [1] is T1, human EP4 (Homo sapiens (Human), UniProt P35408). Kind of assay: In vitro human EP4 functional antagonist activity (PGE2-stimulated cAMP, HTRF). Type of assay: cell-based. To be noted: HEK293 cells expressing human EP4, PGE2 at EC80, n=5; read-out: IC50 measured at human EP4 (inhibition of PGE2-stimulated cAMP production). The method, then:
Assays are conducted in recombinant HEK293 cells stably expressing human EP4 receptor. The cell lines are maintained by culturing in DMEM with high glucose and pyridoxine hydrochloride (Invitrogen) supplemented with 10% fetal bovine serum (FBS), 1 mM sodium pyruvate, 10 mM HEPES, 500 μg/mL geneticin and 2 mM L-glutamine. Confluent cultures are grown at 37° C. in an atmosphere containing 5% CO2. Cells are harvested using 2.5% Trypsin-EDTA, suspended in freeze media (FBS with 6% DMSO) at 10^7 cells/mL and aliquots are stored in liquid nitrogen. Just before assay, cells are thawed in DMEM, centrifuged, and resuspended in cAMP buffer.
The inhibition of PGE2-stimulated cAMP production by EP4 antagonists is measured using HTRF (Cisbio catalogue #62AM4PEB). An aliquot equivalent to 4000 cells is incubated with 50 μL cAMP assay buffer containing PGE2 in a concentration predetermined to produce an EC80 (0.188 nM PGE2 from Sigma, catalog # P5640-10 mg) and EP4 antagonists at room temperature for 20 minutes. cAMP assay buffer contains 500 mL HBSS, 0.1% BSA, 20 mM HEPES and 200 μM IBMX (Sigma 15879). […] The HTRF signal is detected using an EnVision® plate reader (Perkin-Elmer) to calculate the ratio of fluorescence at 665 nm to that at 620 nm. […]
Target sequence in this assay (P35408 whole entry): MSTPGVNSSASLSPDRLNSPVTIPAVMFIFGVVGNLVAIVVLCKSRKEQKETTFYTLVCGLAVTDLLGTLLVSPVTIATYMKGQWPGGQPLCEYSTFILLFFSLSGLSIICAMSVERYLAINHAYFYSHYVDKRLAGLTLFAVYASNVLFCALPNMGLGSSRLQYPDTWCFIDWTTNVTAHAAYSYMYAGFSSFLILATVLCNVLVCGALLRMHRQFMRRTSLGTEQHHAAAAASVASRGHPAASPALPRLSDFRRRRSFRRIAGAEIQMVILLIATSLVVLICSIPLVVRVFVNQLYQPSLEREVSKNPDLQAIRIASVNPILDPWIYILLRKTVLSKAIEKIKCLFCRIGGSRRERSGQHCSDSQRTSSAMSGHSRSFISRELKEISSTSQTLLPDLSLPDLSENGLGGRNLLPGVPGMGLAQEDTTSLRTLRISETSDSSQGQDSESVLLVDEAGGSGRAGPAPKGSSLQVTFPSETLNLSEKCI

In assay [2] the target is human EP2 (Homo sapiens (Human), UniProt P43116). As to the kind of experiment: In vitro binding to human EP2 ([3H]-PGE2 displacement, membranes). To be noted: HEK293 membranes, [3H]-PGE2, n = 2; read-out: hEP2, Ki. The method, then:
(§1) hEP1 and hEP4 membranes are prepared from recombinant HEK293 cells stably expressing the human EP1 (Genbank accession number AY275470) or EP4 (Genbank accession number AY429109) receptors. hEP2 and hEP3 membranes are prepared from HEK293 cells transiently transfected with EP2 (Genbank accession number AY275471) or EP3 (isoform VI: Genbank accession number AY429108) receptor plasmids. Frozen cell pellets are homogenized in homogenization buffer using a Teflon/glass homogenizer. Membrane protein is aliquoted and quick frozen on dry ice prior to storage at −80° C. Homogenization buffer contained 10 mM Tris-HCl, pH 7.4, 250 mM sucrose, 1 mM EDTA, 0.3 mM indomethacin and plus Complete™, with EDTA, obtained from Roche Molecular Biochemicals (Catalog Number 1 697 498).
(§2) Kd values for [3]H-PGE2 binding to each receptor are determined by saturation binding studies or homologous competition. […] Nonspecific binding is calculated by comparing binding in the presence and absence of 2 μM of PGE2. The membranes are harvested by filtration (TomTek harvester), washed 4 times with cold buffer (10 mM MES pH 6.0 with KOH, 10 mM MgCl2), dried in a 60° C. oven, and the radioactivity is quantified as counts per minute (CPM) using a TopCount detector. Percent specific binding is calculated as the percent of the binding in the absence of any inhibitor, corrected for binding in the presence of 2 μM of PGE2. […]

The target of assay [3] is human EP3 (isoform VI) (Homo sapiens (Human), UniProt P43115). Kind of assay: In vitro binding to human EP3 ([3H]-PGE2 displacement, membranes). To be noted: HEK293 membranes, [3H]-PGE2, n = 1; read-out: hEP3, Ki. The method, then:
as §1, §2

For assay [4], the target named is rat EP4 (Rattus norvegicus (Rat), UniProt P43114). Kind of assay: In vitro rat EP4 functional antagonist activity (PGE2-stimulated cAMP, HTRF). The class given is cell-based. To be noted: HEK293 cells expressing rat EP4, PGE2 at EC80, n=1; read-out: IC50 measured at rat EP4 (inhibition of PGE2-stimulated cAMP). Here is the method:
Rat EP4 cDNA (Genebank Accession# NM_03276) is cloned into pcDNA 3.1 vector and subsequently transfected in HEK293 cells for receptor expression. Rat EP4 stable clone is scaled up and then frozen down as cell bank for future compounds screening. To test EP4 antagonist compounds in rEP4 cells, thaw the frozen cells and then resuspend cells in cAMP assay buffer. The cAMP buffer is made by HBSS without Phenol Red (Hyclone, SH30268) supplemented with 20 mM HEPES (Hyclone, SH30237), 0.1% BSA (Gibco, 15260) and 125 μM IBMX (Sigma, 15879). The cells are plated into 96-well half area flat-bottom polystyrene black plates (Costar 3694). Compounds are serial diluted with DMSO to give 10-point concentration response curves. Then diluted compounds are added into cAMP assay buffer which contains PGE2 (Cayman 14010, in a concentration predetermined to produce an EC80) at ratio of DMSO/buffer at 1/100. The cells are treated with compounds in the presence of PGE2 (EC80 concentration) for 30 minutes at room temperature. The cAMP levels generated from the cells are quantified by a cAMP HTRF assay kit (Cisbio 62AM4PEC). The plates are read on an EnVision plate reader using HTRF optimized protocol (PerkinElmer). IC50s are calculated using Graphpad Prism (v. 4) nonlinear regression, sigmoidal dose response curve fitting.

The target in assay [5] is T1, human EP4. As to the kind of experiment: In vitro binding to human EP4 ([3H]-PGE2 displacement, membranes). To be noted: HEK293 membranes, [3H]-PGE2, n = 3; read-out: hEP4, Ki. Here is the method: as §1, §2
Target sequence in this assay (P35408 whole entry, looked up): as the sequence (P35408 whole entry) above
Assay [6] addresses human EP1 (Homo sapiens (Human), UniProt P34995). Kind of assay: In vitro binding to human EP1 ([3H]-PGE2 displacement, membranes). To be noted: HEK293 membranes, [3H]-PGE2, n = 1; read-out: hEP1, Ki. The method, then: as §1, §2
For assay [7], the target named is T1, human EP4. As to the kind of experiment: In vitro antagonist activity in human whole blood (reversal of PGE2 inhibition of LPS-induced TNFα production). The class given is cell-based. As to conditions: LPS 10 μg/mL with 10 nM PGE2, geometric mean±SD, n=11, read-out: IC50 in human blood TNFα induction assay. The source says: The inhibitory effects of PGE2 on LPS-induced TNFα production from macrophages/monocytes are believed to be mediated by EP4 receptors (See Murase, A., et al., Life Sciences, 82:226-232 (2008)). The ability of the compound of Example 1 to reverse the inhibitory effect of PGE2 on LPS-induced TNFα production in human whole blood is an indicia of functional activity.
Blood is collected from normal volunteer donors into sodium heparin vacutainer tubes. Donors have not taken NSAIDs or celecoxib within 48 hours or glucocorticoids within two weeks prior to the donation. All tubes/donor are pooled into 50 mL Falcon conical centrifuge tubes and 98 μL/well is distributed into 96-well tissue culture plates (Falcon 3072). […] TNFα levels in 2 μL plasma are quantified by a commercially available enzyme immunoassay (R&D Systems DY210), using Immulon 4 HBX plates (Thermo 3855) and 3,3′,5,5′ tetramethylbiphenyl-4,4′-diamine substrate (KPL 50-76-03). The plates are read at A450-A650 on a plate reader (Molecular Devices Versamax) using SOFTmaxPRO (v. 4.3.1) software. IC50s are calculated using Graphpad Prism (v. 4) nonlinear regression, with sigmoidal dose response curve fitting. Results are expressed as the geometric mean±standard deviation; n=number of independent determinations.
Target sequence in this assay (P35408 whole entry, looked up): as the sequence (P35408 whole entry) above

Sequence of human EP3 (isoform VI) (P43115 other isoform, or with tags, fused parts or gaps): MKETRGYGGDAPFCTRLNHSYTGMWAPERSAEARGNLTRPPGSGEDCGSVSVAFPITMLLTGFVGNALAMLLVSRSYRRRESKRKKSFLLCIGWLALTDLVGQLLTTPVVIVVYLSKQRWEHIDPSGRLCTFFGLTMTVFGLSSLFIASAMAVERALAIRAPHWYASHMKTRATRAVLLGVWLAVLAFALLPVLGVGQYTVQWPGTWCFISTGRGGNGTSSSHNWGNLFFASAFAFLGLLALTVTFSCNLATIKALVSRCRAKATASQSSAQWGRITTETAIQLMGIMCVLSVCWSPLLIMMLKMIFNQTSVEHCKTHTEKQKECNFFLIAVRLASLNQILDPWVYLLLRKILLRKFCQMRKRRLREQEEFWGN
Sequence of human EP1 (P34995 whole entry): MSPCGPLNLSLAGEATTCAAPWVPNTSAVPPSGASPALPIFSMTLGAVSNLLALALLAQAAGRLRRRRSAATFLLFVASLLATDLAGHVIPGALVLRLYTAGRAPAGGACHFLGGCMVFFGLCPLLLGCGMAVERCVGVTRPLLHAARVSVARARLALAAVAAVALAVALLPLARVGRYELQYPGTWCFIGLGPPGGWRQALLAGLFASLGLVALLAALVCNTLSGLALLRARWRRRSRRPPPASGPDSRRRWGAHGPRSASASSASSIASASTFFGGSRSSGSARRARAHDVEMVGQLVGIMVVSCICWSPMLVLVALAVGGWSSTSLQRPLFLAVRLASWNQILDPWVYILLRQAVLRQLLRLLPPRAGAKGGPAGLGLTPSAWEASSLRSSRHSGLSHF
Sequence of rat EP4 (P43114 whole entry): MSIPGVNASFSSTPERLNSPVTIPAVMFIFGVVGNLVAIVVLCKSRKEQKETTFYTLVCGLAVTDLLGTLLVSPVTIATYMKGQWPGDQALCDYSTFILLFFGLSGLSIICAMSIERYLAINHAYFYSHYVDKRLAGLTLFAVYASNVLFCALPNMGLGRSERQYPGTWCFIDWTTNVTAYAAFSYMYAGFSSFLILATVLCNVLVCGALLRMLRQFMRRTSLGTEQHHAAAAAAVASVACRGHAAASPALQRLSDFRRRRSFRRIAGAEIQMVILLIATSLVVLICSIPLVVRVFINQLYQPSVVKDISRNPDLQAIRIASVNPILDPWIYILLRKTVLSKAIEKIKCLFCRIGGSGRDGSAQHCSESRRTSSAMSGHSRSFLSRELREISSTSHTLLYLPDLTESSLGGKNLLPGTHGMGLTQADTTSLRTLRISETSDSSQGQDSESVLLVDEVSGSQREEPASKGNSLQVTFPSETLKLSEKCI
Sequence of human EP2 (P43116 whole entry, canonical isoform): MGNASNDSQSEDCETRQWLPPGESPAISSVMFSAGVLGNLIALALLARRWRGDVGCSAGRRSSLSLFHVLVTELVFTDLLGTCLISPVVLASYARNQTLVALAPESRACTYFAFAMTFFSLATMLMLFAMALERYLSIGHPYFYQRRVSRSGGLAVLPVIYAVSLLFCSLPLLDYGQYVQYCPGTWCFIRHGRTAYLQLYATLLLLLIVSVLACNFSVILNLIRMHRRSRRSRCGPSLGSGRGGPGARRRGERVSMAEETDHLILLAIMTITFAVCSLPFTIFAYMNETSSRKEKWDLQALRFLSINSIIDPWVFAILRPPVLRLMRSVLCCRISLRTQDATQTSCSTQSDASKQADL

In the case of `CC(C)[C@@H](OCCOc1ccccc1)C(=O)N[C@@H](C)c1ccc(C(=O)O)cc1` [Example 1, 4-[(1S)-1-[[(2R)-3-methyl-2-(2-phenoxyethoxy)butanoyl]amino]ethyl]benzoic acid], the IC50 in assay [1] worked out at 2.2 ± 1.7 nM; in assay [4], 2 nM; in assay [7], 20 ± 24 nM. Moreover, the Ki in assay [2] is 261 ± 108 nM; in assay [3], greater than 12700 nM; in assay [5], 0.45 ± 0.26 nM; in assay [6], greater than 17400 nM.
